Experiment: Ability to inhibit human tissue plasminogen activator stimulator

Ki: 245 µM
Compound: Cc1ccc(N=C(N)N)nc1 [N-(5-Methyl-pyridin-2-yl)-guanidine]

Reference: BindingDB's records for doi:10.1016/s0960-894x(01)00701-6 (Pfizer, 2001)
